Assay results from US20160106654A1, “ADDITIVE OR SYNERGISTIC SUNSCREEN, ANTIOXIDANT, AND DNA REPAIR ENZYME COMPOSITION” (US CosmeceuTechs, LLC, priority 2014, published 2016).

Legend:
[1] = tested on: cyclobutane pyrimidine dimer (CPD) and 8-oxo-7,8-dihydro-2′-deoxyguanosine (8OHdG) formation, and protein carbonylation; test: Combined protection score (CPD, 8OHdG, protein carbonylation), normalized for concentration; settings: for Total Score: a maximum total score is 60
[2] = tested on: Normal human epidermal keratinocytes (NHEK); test: NHEK, UVB, and protein carbonylation assay; assay type: cell-based; settings: 5 μg/mL; for PC inhibition (%): n = 2; for inhibition at 5 µg/mL: Homo sapiens, light or radiation study, n = 2, read-out: PC inhibition (%)
Excerpt: The antioxidant(s) are preferably selected from those which protect against and/or prevent protein carbonylation (PC), protein glycation, lipidation, lipid glycation, protein alkylation, and/or lipid alkylation. Our system of evaluation from US 2006/0171886 A1, which may be modified to include a protein carbonylation, protein glycation, and/or protein alkylation analysis, may be used to evaluate the effectiveness of substances. Test results for selected antioxidants in the protection of human skin against protein carbonylation are shown below in Table 2.

[3] = tested on: Normal human epidermal keratinocytes (NHEK); test: NHEK, UVB, and DNA damage analysis assay; assay type: cell-based; settings: 5 μg/mL; for 8-oxoG inhibition (%) / CPD inhibition (%): n = 2; for inhibition at 5 µg/mL: Homo sapiens, light or radiation study
[4] = n = 2, read-out: 8-oxoG inhibition (%)
[5] = n = 2, read-out: CPD inhibition (%)

Which “8oxo Score” value [1] does the source give for O=C(O[C@@H]1Cc2c(O)cc(O)cc2O[C@@H]1c1cc(O)c(O)c(O)c1)c1cc(O)c(O)c(O)c1 [Epigallocatechin Gallate] here?
The value was 18.

What about the “CPDs Score” value [1] of the same compound?
Its value is 15.

What about the “PC Score” value [1] of the same compound?
The value was 3.

What about the “Total Score” value [1] of the same compound?
The value was 36.

What about the “PC inhibition (%)” value [2] of the same compound?
Its value is 100%.

What about the “8-oxoG inhibition (%)” value [3] of the same compound?
The value was 41.9%.

What about the “CPD inhibition (%)” value [3] of the same compound?
Its value is 44.5%.

NCCC(=O)N[C@@H](Cc1cnc[nH]1)C(=O)O [L-Carnosine] was tested. Which “8oxo Score” value [1] did it give?
Its value is 17.

And the “CPDs Score” value [1]?
Its value is 18.

What about the “PC Score” value [1] of the same compound?
Its value is 17.

And the “Total Score” value [1]?
The value was 52.

What about the “PC inhibition (%)” value [2] of the same compound?
The value was 100%.

And the “8-oxoG inhibition (%)” value [3]?
Its value is 45.0%.

What about the “CPD inhibition (%)” value [3] of the same compound?
Its value is 51.6%.

For O=C1O[C@H]([C@@H](O)CO)C(O)=C1O [L-Ascorbic Acid], which “8oxo Score” value [1] is on record?
Its value is 20.

What about the “CPDs Score” value [1] of the same compound?
The value was 16.

What about the “PC Score” value [1] of the same compound?
Its value is 0.

What about the “Total Score” value [1] of the same compound?
Its value is 36.

What about the inhibition at 5 µg/mL [2] of the same compound?
Its inhibition at 5 µg/mL is 87.2%.

And the inhibition at 5 µg/mL [3, 4]?
Its inhibition at 5 µg/mL is 44.1%.

What about the inhibition at 5 µg/mL [3, 5] of the same compound?
Its inhibition at 5 µg/mL is 33.1%.

With O=C(/C=C/c1ccc(O)c(O)c1)O[C@@H]1C[C@](O)(C(=O)O)C[C@@H](O)[C@H]1O [Chlorogenic Acid] as the compound, how does the inhibition at 5 µg/mL [2] read?
Its inhibition at 5 µg/mL is 0%.

What about the inhibition at 5 µg/mL [3, 4] of the same compound?
Its inhibition at 5 µg/mL is 52.5%.

And the inhibition at 5 µg/mL [3, 5]?
Its inhibition at 5 µg/mL is 36%.

With COc1cc(/C=C/C(=O)O)ccc1O [Ferulic Acid] as the compound, how does the “8oxo Score” value [1] read?
Its value is 19.

And the “CPDs Score” value [1]?
The value was 17.

What about the “PC Score” value [1] of the same compound?
The value was 10.

What about the “Total Score” value [1] of the same compound?
The value was 46.

What about the inhibition at 5 µg/mL [2] of the same compound?
Its inhibition at 5 µg/mL is 0%.

What about the inhibition at 5 µg/mL [3, 4] of the same compound?
Its inhibition at 5 µg/mL is 41.1%.

And the inhibition at 5 µg/mL [3, 5]?
Its inhibition at 5 µg/mL is 15.7%.

Which “8oxo Score” value [1] does the source give for C[N+](C)(C)[C@@H](Cc1c[nH]c(=S)[nH]1)C(=O)[O-] [L-Ergothioneine] here?
The value was 14.

And the “CPDs Score” value [1]?
The value was 17.

What about the “PC Score” value [1] of the same compound?
Its value is 16.

And the “Total Score” value [1]?
The value was 47.

What about the “PC inhibition (%)” value [2] of the same compound?
Its value is 100%.

For O=c1c(O)c(-c2ccc(O)c(O)c2)oc2cc(O)cc(O)c12 [Quercetin], which inhibition at 5 µg/mL [2] is on record?
The inhibition at 5 µg/mL was 0%.

What about the inhibition at 5 µg/mL [3, 4] of the same compound?
Its inhibition at 5 µg/mL is 42.4%.

And the inhibition at 5 µg/mL [3, 5]?
The inhibition at 5 µg/mL was 45.7%.

With Oc1ccc(C=Cc2cc(O)cc(O)c2)cc1 [Resveratrol] as the compound, how does the “8oxo Score” value [1] read?
The value was 18.

And the “CPDs Score” value [1]?
The value was 17.

What about the “PC Score” value [1] of the same compound?
The value was 12.

What about the “Total Score” value [1] of the same compound?
Its value is 47.

What about the inhibition at 5 µg/mL [2] of the same compound?
The inhibition at 5 µg/mL was 0%.

And the inhibition at 5 µg/mL [3, 4]?
The inhibition at 5 µg/mL was 40.6%.

And the inhibition at 5 µg/mL [3, 5]?
The inhibition at 5 µg/mL was 51.9%.

How did the “8oxo Score” value [1] turn out when Cc1c(C)c2c(c(C)c1O)CC[C@@](C)(CCC[C@H](C)CCC[C@H](C)CCCC(C)C)O2 [α-Tocopherol] was run?
Its value is 18.

What about the “CPDs Score” value [1] of the same compound?
The value was 16.

What about the “PC Score” value [1] of the same compound?
Its value is 12.

And the “Total Score” value [1]?
The value was 46.
